Experiments:
Type in all cases: cell-based
[1] = system: adenylyl cyclase; experiment: FSK stimulation in the CRE-luc reporter gene assay system; settings: read-out: EC50 value of FSK in reporter gene assay system; data not shown
[2] = molecular target: 5-HT2A receptor (Homo sapiens, UniProt P28223); experiment: CRE-luc luciferase reporter gene assay, 5-HT2A transfected CHO-K1 cells; settings: 5-HT2A transfected cells, 0.1 μM antagonist, 5-HT lower than 1 μM
[3] = system: 293T cells; settings: no receptor plasmid, 10 μM 5-HT, 12–24 h
[4] = system: CHO-K1 cells; settings: CHO-K1, no receptor plasmid, 10 μM 5-HT, 12–24 h

Chain of 5-HT2A receptor (P28223 whole entry): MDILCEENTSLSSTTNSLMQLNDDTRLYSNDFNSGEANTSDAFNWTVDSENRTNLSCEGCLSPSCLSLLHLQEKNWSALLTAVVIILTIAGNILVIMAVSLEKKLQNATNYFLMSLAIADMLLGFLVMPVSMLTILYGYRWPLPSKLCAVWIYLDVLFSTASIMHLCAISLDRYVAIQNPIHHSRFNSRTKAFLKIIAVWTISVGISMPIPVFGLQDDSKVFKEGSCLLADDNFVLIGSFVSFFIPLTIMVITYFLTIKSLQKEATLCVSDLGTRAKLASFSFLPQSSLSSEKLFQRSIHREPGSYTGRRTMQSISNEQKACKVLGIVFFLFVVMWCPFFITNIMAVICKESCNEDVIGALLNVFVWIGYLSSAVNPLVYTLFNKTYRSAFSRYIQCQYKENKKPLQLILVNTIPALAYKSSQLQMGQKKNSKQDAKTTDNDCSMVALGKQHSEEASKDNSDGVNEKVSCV

SMILES: C=C[C@@]1(C)CC(=O)[C@]2(O)[C@@]3(C)[C@@H](O)CCC(C)(C)[C@@H]3[C@H](O)[C@H](OC(C)=O)[C@@]2(C)O1 [FSK]
- EC50 [1]: 780 nM

SMILES: CSc1ccc2c(c1)C(N1CCN(C)CC1)Cc1ccccc1S2 (stereo not shown) [Methiothepin]
- suppression of luciferase reporter gene expression [2]: significantly suppress

SMILES: NCCc1c[nH]c2ccc(O)cc12 [5-HT]
- nonspecific/endogenous activation of CRE-luc by 5-HT [3]: significantly expression of luciferase was detected
- nonspecific/endogenous activation of CRE-luc by 5-HT [4]: no nonspecific and endogenous activation was observed
